Source: patent publication US11046709B2, “Fused 1,4-diazepines as BET bromodomain inhibitors” (THE REGENTS OF THE UNIVERSITY OF MICHIGAN, priority 2017, dated 2021)
Like-named read-outs stand apart in the source and are kept apart here.

Tests used:
[1] = Plasma exposure after oral gavage in mice, LC-MS/MS; format: in vivo; conditions: mouse, plasma, mice, oral gavage 25 mg/kg; for concentration at 1 h: read-out: Plasma concentration (ng/mL) 1 h; for concentration at 3 h: read-out: Plasma concentration (ng/mL) 3 h; for concentration at 6 h: read-out: Plasma concentration (ng/mL) 6 h
Procedure: For a number of representative compounds in Table 5, their plasma exposures with oral administration in mice via oral gavage were determined by LC-MS/MS, with the data shown in Table 9.

[2] = target: T1, recombinant BRD4 BD1 (Homo sapiens, UniProt O60885); experiment: Competitive fluorescence-polarization (FP) binding assay, BRD4 BD1; conditions: competitive FP, Table 6; read-out: IC50 as determinined in FP assays BRD4 BD1
T1 construct: for recombinant BRD4 BD1 and BRD4 BD2 proteins
Procedure: Fluorescence Polarization (FP) competitive binding studies were carried out using a FAM labeled fluorescent probe, see, e.g., Cpd. No. 350 of US 2014/0256706, to determine binding affinities of representative Compounds of the Disclosure for recombinant BRD4 BD1 and BRD4 BD2 proteins. Equilibrium dissociation constants (Kd) values of the fluorescent probe to BRD4 BD1 and BD2 proteins were determined from protein saturation experiments by monitoring the total fluorescence polarization of mixtures composed with the fluorescent probe at a fixed concentration and proteins with increasing concentrations up to full saturation. Serial dilutions of testing proteins were mixed with the fluorescent probe to a final volume of 200 μl in the assay buffer (100 mM phosphate buffer, pH=6.5, 0.01% Triton X-100 (Sigma, 282103) being added right before assays). Final fluorescent probe concentration was 1.5 nM for both proteins. Plates were incubated at room temperature for 30 minutes with gentle shaking to assure equilibrium. FP values in millipolarization units (mP) were measured using the Infinite M-1000 plate reader (Tecan U.S., Research Triangle Park, N.C.) in Microfluor 1 96-well, black, round-bottom plates (Thermo Scientific, Waltham, Mass.) at an excitation wavelength of 485 nm and an emission wavelength of 530 nm. Kd values of the fluorescent probe, which were calculated by fitting the sigmoidal dose-dependent FP increases as a function of protein concentrations using Graphpad Prism 6.0 software (Graphpad Software, San Diego, Calif.), are 5.5 and 3.0 nM to BDR4 BD1 and 2, respectively.
The IC50 and Ki values of compounds were determined in a competitive binding experiment. See US 2014/0256706. Mixtures of 10 μl of the tested compounds in assay buffer with 40% Ethylene Glycol and 190 μl of preincubated protein/probe complex solution in the assay buffer (100 mM potassium phosphate, pH 6.5, 0.01% Triton X-100) were added into assay plates which were incubated at room temperature for 30 minutes with gentle shaking. Final concentrations of proteins were 10 and 6 nM in assays for BRD4 BD1 and BD2, respectively. Final probe concentration is 1.5 nM in both assays. Negative controls containing protein/probe complex only (equivalent to 0% inhibition), and positive controls containing only free probes (equivalent to 100% inhibition), were included in each assay plate. FP values were measured as described above. IC50 values were determined by nonlinear regression fitting of the competition curves. Instead of being calculated from IC50 values as described before. Ki values of competitive inhibitors were obtained directly by nonlinear regression fitting as well, based upon the Kd values of the probe to different proteins, and concentrations of the proteins and probes in the competitive assays (US 2014/0256706; Wang, FEBS Lett. 360:111 (1995); Zhang et al., Analytical Biochemistry, 331:138 (2004)).
Representative compounds in Table 5 were evaluated for their binding affinities to BRD4 BD1 and BD2 proteins using the Competitive Fluorescence-Polarization (FP) Assays described in Example 6, with the data included in Table 6.

[3] = target: T2, recombinant BRD4 BD2 (Homo sapiens, UniProt O60885); experiment: Competitive fluorescence-polarization (FP) binding assay, BRD4 BD2; conditions: competitive FP, Table 6; read-out: IC50 as determinined in FP assays BRD4 BD2
T2 construct: for recombinant BRD4 BD1 and BRD4 BD2 proteins

[4] = system: MOLM-13; experiment: Cell growth inhibition, 4-day proliferation assay, MOLM-13; format: cell-based; conditions: Homo sapiens, MOLM-13, WST-8 assay, Table 7; read-out: Cell growth inhibition (IC50 (nM)) MOLM-13
[5] = system: MDA-MB-231; experiment: Cell growth inhibition, 4-day proliferation assay, MDA-MB-231; format: cell-based; conditions: Homo sapiens
Summary of the method: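 Cells seeded at 3,000-10,000/well, treated with serially diluted compounds 4 days at 37 °C, 5% CO2. Viability by WST-8 (10% v/v, 1-2 h, A450); readings normalized to DMSO-treated cells, IC50 by four-parameter nonlinear regression.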

[6] = system: RS4;11; experiment: Cell growth inhibition, 4-day proliferation assay, RS4;11; format: cell-based; conditions: Homo sapiens, RS4-11, 96 h, read-out: Cell IC50 (nM) RS4;11
Procedure: The effect of representative Compounds of the Disclosure on cell viability was determined in a 4-day proliferation assay. Cells were maintained in the appropriate culture medium with 100/0 FBS at 37° C. and an atmosphere of 5% CO2. All the cell lines were used within three months of thawing fresh vials.
In general, cells were seeded in 96-well flat bottom (Corning COSTAR, Corning, N.Y., cat #3595) or white opaque cell culture plates (BD Falcon, cat #353296) at a density of 3,000-10,000 cells/well in 75 μl of culture medium. Compounds were serially diluted in the appropriate medium, and 75 μl of the diluted compounds were added to the appropriate wells of the cell plate. After the addition of compounds, the cells were incubated at 37° C. in an atmosphere of 5% CO2 for 4 days. Cell viability was determined using the CellTiter-Glo® Luminescent Cell Viability Assay Kit (Promega, Madison, Wis.) for leukemia cells and WST (2-(2-methoxy-4-nitrophenyl)-3-(4-nitrophenyl)-5-(2,4-disulfophenyl)-2H-tetrazolium, monosodium salt) Cell Counting-8 Kit (Dojindo Molecular Technologies, Inc., Rockville, Md.) for adherent cells according to the manufacturers' instructions.
For WST assay (adherent cells), WST-8 reagent was added to each well at a final concentration of 10% (v/v), and then the plates were incubated at 37° C. for 1-2 hours for color development. The absorbance was measured at 450 nm using a SPECTRAmax PLUS plate reader (Molecular Devices, Sunnyvale, Calif.). The readings were normalized to the DMSO-treated cells and the half maximal inhibitory concentration (IC50) was calculated by nonlinear regression (four parameters sigmoid fitted with variable slope, least squares fit, and no constraint) analysis using the GraphPad Prism 5 software (GraphPad Software, La Jolla, Calif.).
For CellTiter-Glo assay (suspension cells), 100 μl of CellTiter-Glo® Reagent was added to each well, and then the plates were incubated at room temperature for 10-20 minutes. The luminescent signal was measured using a Tecan Infinite M1000 multimode microplate reader (Tecan, Morrisville, N.C.). The readings were normalized to the DMSO-treated cells and the IC50 was calculated by nonlinear regression (four parameters sigmoid fitted with variable slope, least squares fit, and no constraint) analysis using the GraphPad Prism 5 software. See US 2014/0256706.
For a number of representative compounds in Table 5, their IC50 values in cell growth inhibition activity in the RS4;11 and MOLM-13 human leukemia cell lines and the MDA-MB-231 breast cancer cell line were evaluated using the WST-8 assay described in EXAMPLE 7, with the data shown in Table 7.

[7] = MDA-MB-231, WST-8 assay, Table 7, read-out: Cell growth inhibition (IC50 (nM)) MDA-MB-231

SMILES: CCNC(=O)C[C@@H]1N=C(c2ccc(Cl)cc2)c2c(sc(C#Cc3ccccn3)c2C)-n2c(C)nnc21 [Compound 110, (S)-2-(4-(4-chlorophenyl)-3,9-dimethyl-2-(pyridin-2-ylethynyl)-6H-thieno[3,2-f][1,2,4]triazolo[4,3-a][1,4]diazepin-6-yl)-N-ethylacetamide]
- concentration at 1 h [1]: 1540 ng/mL
- concentration at 3 h [1]: 1160 ng/mL
- concentration at 6 h [1]: 123 ng/mL
- IC50 [2]: 8.5 nM
- IC50 [3]: 27.5 nM
- IC50 [4]: 47.7 nM
- IC50 [5, 7]: 310 ± 100 nM

SMILES: Cc1c(C#Cc2ccccn2)sc2c1C(c1ccc(Cl)cc1)=N[C@@H](CC(=O)N1CCN(C)CC1)c1nnc(C)n1-2 [Compound 119, (S)-2-(4-(4-chlorophenyl)-3,9-dimethyl-2-(pyridin-2-ylethynyl)-6H-thieno[3,2-f][1,2,4]triazolo[4,3-a][1,4]diazepin-6-yl)-1-(4-methylpiperazin-1-yl)ethan-1-one]
- concentration at 1 h [1]: 632 ng/mL
- concentration at 3 h [1]: 370 ng/mL
- concentration at 6 h [1]: 52 ng/mL
- IC50 [2]: 6.9 nM
- IC50 [3]: 140 nM
- IC50 [4]: 20.9 nM
- IC50 [5, 7]: 38.1 nM

SMILES: Cc1c(C#Cc2ccccn2)sc2c1C(c1ccc(Cl)cc1)=N[C@@H](CC(=O)Nc1ccc(O)cc1)c1nnc(C)n1-2 [Compound 125, (S)-2-(4-(4-chlorophenyl)-3,9-dimethyl-2-(pyridin-2-ylethynyl)-6H-thieno[3,2-f][1,2,4]triazolo[4,3-a][1,4]diazepin-6-yl)-N-(4-hydroxyphenyl)acetamide]
- concentration at 1 h [1]: 2520 ng/mL
- concentration at 3 h [1]: 407 ng/mL
- concentration at 6 h [1]: 83 ng/mL
- IC50 [2]: 10.2 nM
- IC50 [3]: 13.9 nM
- IC50 [4]: 31 nM
- IC50 [5, 7]: 132 nM

SMILES: Cc1c(C#Cc2ccccn2)sc2c1C(c1ccc(Cl)cc1)=N[C@@H](CC(=O)N1CCOCC1)c1nnc(C)n1-2 [Compound 126, (S)-2-(4-(4-chlorophenyl)-3,9-dimethyl-2-(pyridin-2-ylethynyl)-6H-thieno[3,2-f][1,2,4]triazolo[4,3-a][1,4]diazepin-6-yl)-1-morpholinoethan-1-one]
- concentration at 1 h [1]: 2910 ng/mL
- concentration at 3 h [1]: 599 ng/mL
- concentration at 6 h [1]: 473 ng/mL
- IC50 [2]: 8.7 nM
- IC50 [3]: 27.8 nM
- IC50 [4]: 13.5 nM
- IC50 [5, 7]: 60.7 nM

SMILES: Cc1nnc(C[C@@H]2N=C(c3ccc(Cl)cc3)c3c(sc(C#CC4CC4)c3C)-n3c(C)nnc32)o1 [Compound 143, (S)-2-((4-(4-chlorophenyl)-2-(cyclopropylethynyl)-3,9-dimethyl-6H-thieno[3,2-f][1,2,4]triazolo[4,3-a][1,4]diazepin-6-yl)methyl)-5-methyl-1,3,4-oxadiazole]
- concentration at 1 h [1]: 3170 ng/mL
- concentration at 3 h [1]: 2700 ng/mL
- concentration at 6 h [1]: 3670 ng/mL
- IC50 [2]: 8.86 nM
- IC50 [3]: 21.6 nM
- IC50 [4]: 6.06 nM
- IC50 [5, 7]: 6.59 nM

SMILES: Cc1nnc(C[C@@H]2N=C(c3ccc(Cl)cc3)c3c(sc(C#CC(C)(C)O)c3C)-n3c(C)nnc32)o1 [Compound 144, (S)-4-(4-(4-chlorophenyl)-3,9-dimethyl-6-((5-methyl-1,3,4-oxadiazol-2-yl)methyl)-6H-thieno[3,2-f][1,2,4]triazolo[4,3-a][1,4]diazepin-2-yl)-2-methylbut-3-yn-2-ol]
- concentration at 1 h [1]: 4160 ng/mL
- concentration at 3 h [1]: 7580 ng/mL
- concentration at 6 h [1]: 1120 ng/mL
- IC50 [2]: 21.8 nM
- IC50 [3]: 26.4 nM
- IC50 [4]: 36.4 nM
- IC50 [5, 7]: 288 nM

SMILES: Cc1nnc(C[C@@H]2N=C(c3ccc(Cl)cc3)c3c(sc(C#CC4CCNCC4)c3C)-n3c(C)nnc32)o1 [Compound 174, (S)-2-((4-(4-chlorophenyl)-3,9-dimethyl-2-(piperidin-4-ylethynyl)-6H-thieno[3,2-f][1,2,4]triazolo[4,3-a][1,4]diazepin-6-yl)methyl)-5-methyl-1,3,4-oxadiazole]
- concentration at 1 h [1]: 56 ng/mL
- concentration at 3 h [1]: 12 ng/mL
- concentration at 6 h [1]: 3 ng/mL
- IC50 [2]: 49.9 nM
- IC50 [3]: 46 nM
- IC50 [4]: 3.1 nM
- IC50 [5, 7]: 9.43 nM

SMILES: Cc1nnc(C[C@@H]2N=C(c3ccc(Cl)cc3)c3c(sc(C#CC4CCN(C)CC4)c3C)-n3c(C)nnc32)o1 [Compound 175, (S)-2-((4-(4-chlorophenyl)-3,9-dimethyl-2-((1-methylpiperidin-4-yl)ethynyl)-6H-thieno[3,2-f][1,2,4]triazolo[4,3-a][1,4]diazepin-6-yl)methyl)-5-methyl-1,3,4-oxadiazole]
- concentration at 1 h [1]: 413 ng/mL
- concentration at 3 h [1]: 384 ng/mL
- concentration at 6 h [1]: 68 ng/mL
- IC50 [2]: 31.8 nM
- IC50 [3]: 93.2 nM
- IC50 [4]: 5 nM
- IC50 [5, 7]: 3.96 nM

SMILES: Cc1c(C#Cc2ccc3[nH]ncc3c2)sc2c1C(c1ccc(Cl)cc1)=NCc1nnc(C)n1-2 [compound 41, 2-((1H-indazol-5-yl)ethynyl)-4-(4-chlorophenyl)-3,9-dimethyl-6H-thieno[3,2-f][1,2,4]triazolo[4,3-a][1,4]diazepine]
- IC50 [6]: 278 nM
- IC50 ([5]; MDA-MB-231, 96 h, read-out: Cell IC50 (nM) MDA-MB-231): 680 nM
